# Measured values published in paper PMC8391922, “The Combined Effect of Branching and Elongation on the Bioactivity Profile of Phytocannabinoids. Part I: Thermo-TRPs” (Biomedicines, 2021).
# Several values for one entry are separate records, joined by “and”; a condition that tells them apart may be missing. Equal entries are not always repeated. Where two headings read alike, the source gives them in different places.
# Key:
# rat TRPA1 [1] = biological target: T1, rat TRPA1 (Rattus norvegicus, UniProt Q6RI86); assay: TRPA1-mediated elevation of intracellular Ca2+ (Fluo-4) in transfected HEK-293 cells; format: cell-based; details: for TRPA1 Efficacy (%ITC 100 μM): percentage of the effect of 100 μM allylisothiocyanate on [Ca2+]i, HEK-293
# T1 construct: expressed in transfected cells; host or cells: HEK-293
# T1 sequence (Q6RI86 whole entry): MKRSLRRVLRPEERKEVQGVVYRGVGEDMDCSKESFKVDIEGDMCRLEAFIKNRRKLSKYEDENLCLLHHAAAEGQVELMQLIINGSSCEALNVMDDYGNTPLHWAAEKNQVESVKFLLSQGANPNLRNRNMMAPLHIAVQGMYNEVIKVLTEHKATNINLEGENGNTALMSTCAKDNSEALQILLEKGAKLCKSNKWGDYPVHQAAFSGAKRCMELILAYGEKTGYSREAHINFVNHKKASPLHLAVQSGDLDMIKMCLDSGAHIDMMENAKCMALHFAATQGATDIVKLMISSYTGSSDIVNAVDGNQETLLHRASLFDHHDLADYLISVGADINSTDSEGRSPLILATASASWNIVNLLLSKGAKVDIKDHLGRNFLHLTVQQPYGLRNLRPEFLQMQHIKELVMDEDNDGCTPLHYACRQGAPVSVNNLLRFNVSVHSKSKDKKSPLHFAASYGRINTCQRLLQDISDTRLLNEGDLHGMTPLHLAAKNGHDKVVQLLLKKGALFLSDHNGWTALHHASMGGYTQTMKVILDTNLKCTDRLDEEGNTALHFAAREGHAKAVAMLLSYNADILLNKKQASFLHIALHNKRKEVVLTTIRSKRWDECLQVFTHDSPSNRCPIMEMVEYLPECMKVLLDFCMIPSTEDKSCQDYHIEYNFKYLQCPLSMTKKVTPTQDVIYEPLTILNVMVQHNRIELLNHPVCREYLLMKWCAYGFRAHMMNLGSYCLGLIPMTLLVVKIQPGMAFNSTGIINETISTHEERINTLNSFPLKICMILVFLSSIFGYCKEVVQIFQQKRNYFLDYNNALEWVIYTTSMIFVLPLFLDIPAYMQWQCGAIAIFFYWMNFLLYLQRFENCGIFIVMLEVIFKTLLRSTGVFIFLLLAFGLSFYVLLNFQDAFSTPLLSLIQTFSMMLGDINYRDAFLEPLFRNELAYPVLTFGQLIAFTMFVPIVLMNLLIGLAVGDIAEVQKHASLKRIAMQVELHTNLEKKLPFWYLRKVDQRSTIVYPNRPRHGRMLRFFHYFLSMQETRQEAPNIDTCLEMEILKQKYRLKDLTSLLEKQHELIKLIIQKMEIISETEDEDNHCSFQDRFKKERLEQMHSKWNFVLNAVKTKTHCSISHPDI
# Protocol: (§1) Assays of rat TRPA1, TRPV2, TRPV3, TRPV4, and TRPM8 or human TRPV1 mediated elevation of intracellular Ca ^2+ in transfected HEK-293 cells were performed with a continuous monitoring of [Ca ^2+]i during the experiments. […] Cell fluorescence before and after the addition of various concentrations of test compounds was measured, normalizing the effects against the response to ionomycin (IM, 4 μM). The values of the effect on [Ca^2+]i in HEK-293 cells not transfected were used as baseline and subtracted from the values obtained from transfected cells. For TRPA1, agonist efficacy was expressed as a percentage of the effect on [Ca ^2+]i observed with 100 μM allylisothiocyanate. […] In the TRPV3 assay, TRPV3-expressing HEK293 cells were first sensitized with the structurally unrelated agonist 2-aminoethoxydiphenyl borate (100 μM). Antagonist/desensitizing behavior is evaluated against the agonist of the TRP analyzed by adding the compounds directly in the quartz cuvette 5 min before stimulation of cells with the agonist. […] Dose-response curve fitting (sigmoidal dose-response variable slope) and parameter estimation were performed with Graph-Pad Prism8 (GraphPad Software Inc., San Diego, CA, USA). All determinations were performed at least in triplicate.
# human TRPV1 [2] = biological target: T2, human TRPV1 (Homo sapiens, UniProt Q8NER1); assay: TRPV1-mediated elevation of intracellular Ca2+ (Fluo-4) in transfected HEK-293 cells; format: cell-based; details: for TRPV1 Efficacy (% IM 4 μM): percentage of the response to ionomycin 4 μM, HEK-293
# T2 construct: expressed in transfected cells; host or cells: HEK-293
# T2 sequence (Q8NER1 whole entry): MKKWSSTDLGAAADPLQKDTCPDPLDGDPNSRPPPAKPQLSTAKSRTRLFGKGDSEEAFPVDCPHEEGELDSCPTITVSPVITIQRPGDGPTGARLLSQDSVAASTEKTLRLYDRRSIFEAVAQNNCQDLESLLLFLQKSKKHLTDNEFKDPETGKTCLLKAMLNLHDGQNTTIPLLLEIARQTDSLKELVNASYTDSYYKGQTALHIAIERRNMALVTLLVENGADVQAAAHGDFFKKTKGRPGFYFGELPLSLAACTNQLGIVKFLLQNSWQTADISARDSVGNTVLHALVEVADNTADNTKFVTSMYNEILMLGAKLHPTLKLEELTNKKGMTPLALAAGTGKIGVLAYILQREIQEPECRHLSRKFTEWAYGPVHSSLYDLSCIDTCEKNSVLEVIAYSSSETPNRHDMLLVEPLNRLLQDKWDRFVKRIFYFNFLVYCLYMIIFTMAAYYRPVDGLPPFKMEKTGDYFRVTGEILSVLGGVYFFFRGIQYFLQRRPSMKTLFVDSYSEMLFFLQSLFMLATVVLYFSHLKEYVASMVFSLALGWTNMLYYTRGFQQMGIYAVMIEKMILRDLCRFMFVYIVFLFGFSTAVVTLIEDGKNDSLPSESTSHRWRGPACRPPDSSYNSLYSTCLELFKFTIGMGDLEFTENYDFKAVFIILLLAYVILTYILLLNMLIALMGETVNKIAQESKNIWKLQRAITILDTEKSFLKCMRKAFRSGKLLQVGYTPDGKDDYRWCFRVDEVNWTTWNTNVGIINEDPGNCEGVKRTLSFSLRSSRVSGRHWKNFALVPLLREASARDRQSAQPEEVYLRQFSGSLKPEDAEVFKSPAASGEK
# Protocol: as §1
# rat TRPM8 [3] = biological target: T3, rat TRPM8 (Rattus norvegicus, UniProt Q8R455); assay: TRPM8 antagonism of icilin-induced intracellular Ca2+ elevation (Fluo-4) in transfected HEK-293 cells; format: cell-based; details: IC50 TRPM8, antagonist; compound added 5 min before agonist icilin 0.25 μM
# T3 construct: expressed in transfected cells; host or cells: HEK-293
# T3 sequence (Q8R455 whole entry): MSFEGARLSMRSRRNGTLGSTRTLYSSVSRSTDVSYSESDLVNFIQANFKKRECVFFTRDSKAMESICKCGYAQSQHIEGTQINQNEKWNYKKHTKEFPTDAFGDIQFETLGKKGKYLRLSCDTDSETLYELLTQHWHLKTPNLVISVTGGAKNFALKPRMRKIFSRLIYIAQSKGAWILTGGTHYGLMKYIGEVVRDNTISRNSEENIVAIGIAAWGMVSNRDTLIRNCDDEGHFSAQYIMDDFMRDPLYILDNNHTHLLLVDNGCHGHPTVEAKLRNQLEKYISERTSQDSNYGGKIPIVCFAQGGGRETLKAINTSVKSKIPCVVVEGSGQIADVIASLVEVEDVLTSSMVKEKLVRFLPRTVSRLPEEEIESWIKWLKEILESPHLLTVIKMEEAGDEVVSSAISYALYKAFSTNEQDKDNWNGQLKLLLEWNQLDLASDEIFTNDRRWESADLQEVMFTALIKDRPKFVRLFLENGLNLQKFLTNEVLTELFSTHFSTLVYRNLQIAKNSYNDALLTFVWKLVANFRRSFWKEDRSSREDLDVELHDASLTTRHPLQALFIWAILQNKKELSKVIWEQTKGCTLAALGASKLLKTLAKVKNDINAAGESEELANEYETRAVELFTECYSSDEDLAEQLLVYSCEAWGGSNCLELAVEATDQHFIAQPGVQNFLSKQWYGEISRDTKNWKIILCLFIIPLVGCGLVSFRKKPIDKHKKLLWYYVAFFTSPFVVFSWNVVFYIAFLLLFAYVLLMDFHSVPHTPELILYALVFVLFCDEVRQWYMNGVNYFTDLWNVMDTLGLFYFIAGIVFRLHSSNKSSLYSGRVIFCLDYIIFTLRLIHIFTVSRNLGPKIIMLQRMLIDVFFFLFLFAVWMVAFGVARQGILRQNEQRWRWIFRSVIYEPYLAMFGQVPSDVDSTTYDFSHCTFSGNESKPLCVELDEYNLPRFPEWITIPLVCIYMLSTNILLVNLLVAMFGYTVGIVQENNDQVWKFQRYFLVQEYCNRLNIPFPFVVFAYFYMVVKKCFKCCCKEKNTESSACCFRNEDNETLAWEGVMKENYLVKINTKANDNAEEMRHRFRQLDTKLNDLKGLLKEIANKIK
# Protocol: as §1
# rat TRPA1 [4] = biological target: T1, rat TRPA1; set-up: method as in PMID 21175579; details: cited from earlier work; for TRPA1 Efficacy (%ITC 100 μM): percentage of the effect of 100 μM allylisothiocyanate
# human TRPV1 [5] = biological target: T2, human TRPV1; set-up: method as in PMID 21175579; details: cited from earlier work; for TRPV1 Efficacy (% IM 4 μM): percentage of the response to ionomycin 4 μM
# rat TRPV2 [6] = biological target: T4, rat TRPV2 (Rattus norvegicus, UniProt Q9WUD2); set-up: method as in PMID 21175579, PMID 21726418; details: cited from earlier work; for TRPV2 Efficacy (% IM 4 μM): percentage of the response to ionomycin 4 μM; for IC50: read-out: IC50 TRPV2
# T4 construct: expressed in transfected cells; host or cells: HEK-293
# T4 sequence (Q9WUD2 1-761): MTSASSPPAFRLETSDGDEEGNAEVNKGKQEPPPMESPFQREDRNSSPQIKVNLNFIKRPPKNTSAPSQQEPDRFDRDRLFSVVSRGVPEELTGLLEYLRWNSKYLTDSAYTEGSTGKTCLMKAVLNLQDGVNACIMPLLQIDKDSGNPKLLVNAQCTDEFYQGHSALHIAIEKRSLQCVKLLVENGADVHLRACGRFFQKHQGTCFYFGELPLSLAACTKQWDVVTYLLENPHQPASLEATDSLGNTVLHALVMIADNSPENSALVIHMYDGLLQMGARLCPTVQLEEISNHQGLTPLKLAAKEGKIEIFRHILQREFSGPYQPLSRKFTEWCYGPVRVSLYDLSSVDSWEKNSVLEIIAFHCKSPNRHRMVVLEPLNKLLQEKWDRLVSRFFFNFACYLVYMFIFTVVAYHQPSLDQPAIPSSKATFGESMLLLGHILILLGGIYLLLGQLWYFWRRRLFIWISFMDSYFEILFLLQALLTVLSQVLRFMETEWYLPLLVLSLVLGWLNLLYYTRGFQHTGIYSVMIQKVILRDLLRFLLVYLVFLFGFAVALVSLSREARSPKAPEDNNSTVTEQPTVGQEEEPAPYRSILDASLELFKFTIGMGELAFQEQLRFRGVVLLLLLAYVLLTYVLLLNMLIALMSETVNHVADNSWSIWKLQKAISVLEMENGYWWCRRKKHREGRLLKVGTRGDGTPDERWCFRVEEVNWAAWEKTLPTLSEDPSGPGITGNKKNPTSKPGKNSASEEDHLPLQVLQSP
# rat TRPV3 = biological target: T5, rat TRPV3 (Rattus norvegicus, UniProt Q4QYD9); set-up: method as in PMID 21175579, PMID 21726418; details: cited from earlier work; for TRPV3 Efficacy (% IM 4 μM): percentage of the response to ionomycin 4 μM; for EC50: read-out: TRPV3 Potency EC50, half-maximal increase in [Ca2+]i
# T5 construct: expressed in transfected cells; host or cells: HEK-293
# T5 sequence (Q4QYD9 1-791): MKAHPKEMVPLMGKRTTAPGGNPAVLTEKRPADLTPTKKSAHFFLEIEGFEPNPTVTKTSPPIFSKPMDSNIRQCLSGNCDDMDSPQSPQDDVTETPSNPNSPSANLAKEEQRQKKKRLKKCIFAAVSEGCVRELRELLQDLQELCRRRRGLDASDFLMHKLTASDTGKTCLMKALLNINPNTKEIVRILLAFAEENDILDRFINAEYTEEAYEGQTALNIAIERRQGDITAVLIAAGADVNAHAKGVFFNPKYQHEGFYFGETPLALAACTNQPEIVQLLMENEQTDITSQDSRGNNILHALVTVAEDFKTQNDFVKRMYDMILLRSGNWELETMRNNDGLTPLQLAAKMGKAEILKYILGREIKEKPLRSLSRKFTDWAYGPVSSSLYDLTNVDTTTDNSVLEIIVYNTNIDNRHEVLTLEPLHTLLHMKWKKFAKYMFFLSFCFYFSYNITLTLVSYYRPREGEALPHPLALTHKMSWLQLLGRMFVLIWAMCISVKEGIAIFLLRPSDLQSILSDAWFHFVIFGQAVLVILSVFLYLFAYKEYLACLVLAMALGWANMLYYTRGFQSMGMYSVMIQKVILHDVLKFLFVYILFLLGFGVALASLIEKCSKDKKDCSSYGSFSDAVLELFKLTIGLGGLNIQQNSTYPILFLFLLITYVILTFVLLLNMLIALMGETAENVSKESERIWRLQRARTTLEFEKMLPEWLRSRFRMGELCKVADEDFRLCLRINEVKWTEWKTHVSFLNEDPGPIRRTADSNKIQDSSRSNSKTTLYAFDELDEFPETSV
# rat TRPV4 [7] = biological target: T6, rat TRPV4 (Rattus norvegicus, UniProt Q9ERZ8); set-up: method as in PMID 21175579, PMID 21726418; details: cited from earlier work; for TRPV4 Efficacy (% IM 4 μM): percentage of the response to ionomycin 4 μM; for EC50: read-out: TRPV4 Potency EC50, half-maximal increase in [Ca2+]i
# T6 construct: expressed in transfected cells; host or cells: HEK-293
# T6 sequence (Q9ERZ8 whole entry): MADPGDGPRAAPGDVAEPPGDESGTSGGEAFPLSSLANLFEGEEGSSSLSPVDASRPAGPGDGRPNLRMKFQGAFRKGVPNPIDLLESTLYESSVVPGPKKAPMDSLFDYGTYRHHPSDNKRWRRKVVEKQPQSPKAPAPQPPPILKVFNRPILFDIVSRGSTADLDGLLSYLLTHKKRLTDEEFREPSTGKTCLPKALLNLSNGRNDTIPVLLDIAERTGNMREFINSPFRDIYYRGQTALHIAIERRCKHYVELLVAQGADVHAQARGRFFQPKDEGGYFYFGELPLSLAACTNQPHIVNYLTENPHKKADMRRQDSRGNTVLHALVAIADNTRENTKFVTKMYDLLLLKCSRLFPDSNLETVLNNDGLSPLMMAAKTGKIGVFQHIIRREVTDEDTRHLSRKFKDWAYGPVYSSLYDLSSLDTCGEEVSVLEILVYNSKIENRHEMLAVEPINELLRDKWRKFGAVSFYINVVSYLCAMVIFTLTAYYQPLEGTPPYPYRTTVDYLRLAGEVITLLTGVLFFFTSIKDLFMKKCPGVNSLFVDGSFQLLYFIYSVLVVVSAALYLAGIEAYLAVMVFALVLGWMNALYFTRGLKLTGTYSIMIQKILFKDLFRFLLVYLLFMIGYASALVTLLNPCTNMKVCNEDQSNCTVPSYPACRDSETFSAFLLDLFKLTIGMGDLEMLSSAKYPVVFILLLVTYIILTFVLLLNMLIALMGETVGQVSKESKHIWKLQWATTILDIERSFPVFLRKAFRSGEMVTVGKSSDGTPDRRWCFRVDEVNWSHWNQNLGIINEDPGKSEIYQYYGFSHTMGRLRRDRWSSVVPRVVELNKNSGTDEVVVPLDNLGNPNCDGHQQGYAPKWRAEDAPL
# rat TRPM8 [8] = biological target: T3, rat TRPM8; set-up: method as in PMID 21175579; details: read-out: IC50 TRPM8; against agonist icilin 0.25 μM; cited from earlier work
# rat TRPV2 [9] = biological target: T4, rat TRPV2; assay: TRPV2-mediated elevation of intracellular Ca2+ (Fluo-4) in transfected HEK-293 cells; format: cell-based
# Protocol: as §1
# rat TRPV4 [10] = biological target: T6, rat TRPV4; assay: TRPV4-mediated elevation of intracellular Ca2+ (Fluo-4) in transfected HEK-293 cells; format: cell-based
# Protocol: as §1
# [11] = percentage of the response to ionomycin 4 μM, HEK-293
SMILES,EC50 (rat TRPA1 [1]),IC50 (rat TRPA1 [1]),TRPA1 Efficacy (%ITC 100 μM) (rat TRPA1 [1]),IC50 (human TRPV1 [2]),TRPV1 Efficacy (% IM 4 μM) (human TRPV1 [2]),IC50 (rat TRPM8 [3]),TRPA1 Efficacy (%ITC 100 μM) (rat TRPA1 [4]),TRPV1 Efficacy (% IM 4 μM) (human TRPV1 [5]),TRPV2 Efficacy (% IM 4 μM) (rat TRPV2 [6]),TRPV3 Efficacy (% IM 4 μM) (rat TRPV3),EC50 (rat TRPV3),TRPV4 Efficacy (% IM 4 μM) (rat TRPV4 [7]),EC50 (rat TRPV4 [7]),further results
"CCCCCCC(C)(C)c1cc(O)c2c(c1)OC(C)(C)c1ccc(C)cc1-2 [9b, Depentyl-α,α-dimethylheptyl-cannabinol]",2.1 ± 0.9 µM,3.2 ± 0.6 µM,132.3 ± 7.9%,> 100 µM,<10 <10%,0.98 ± 0.12 µM,,,,,,,,
"C=C(C)[C@@H]1CCC(C)=C[C@H]1c1c(O)cc(CCCCC)cc1O [1a, cannabidiol]",,,,,,,115.9 ± 4.6%,44.7 ± 0.02%,40.5 ± 1.6%,50.1 ± 4.8%,3.7 µM,16.7 ± 1.0%,0.8 µM,"IC50 (rat TRPA1 [4]; read-out: IC50 TRPA1, against agonist AITC 100 μM): 0.16 µM; IC50 TRPV1 (human TRPV1 [5]; against agonist capsaicin 0.1 μM): sub/low micromolar range; IC50 (human TRPV1 [5]; read-out: IC50 TRPV1, against agonist capsaicin 0.1 μM): 0.6 µM; IC50 (rat TRPV2 [6]; against agonist LPC 3 μM): 4.5 µM; IC50 (rat TRPV3; read-out: IC50 TRPV3, against agonist carvacrol 1 mM): 0.9 µM; IC50 (rat TRPV4 [7]; read-out: IC50 TRPV4, against agonist 4αPDD 1 μM): 1.1 µM"
"CCCCCc1cc(O)c2c(c1)OC(C)(C)[C@@H]1CC=C(C)C[C@@H]21 [6a, Δ^8-tetrahydrocannabinol]",,,,,,,117.0 ± 12.0%,< 10%,53.0 ± 1.4% and 39.9 ± 2.1%,18.2 ± 1.0% and 13.1 ± 2.4%,9.5 µM and 5.3 µM,<10 <10% and 15.3 ± 1.5%,16.1 ± 4.5 µM,"EC50 (rat TRPA1 [4]; read-out: TRPA1 Potency EC50, half-maximal increase in [Ca2+]i): 0.23 µM; IC50 (rat TRPM8 [8]): 0.16 µM; IC50 (rat TRPV2 [6]; against agonist CBD 2 μM): 0.8 µM"
"CCCCCCC(C)(C)c1cc(O)c2c(c1)OC(C)(C)[C@@H]1CC=C(C)C[C@@H]21 [6b, Depentyl-α,α-dimethylheptyl-Δ^8-tetrahydrocannabinol]",4.8 ± 1.1 µM,6 ± 0.9 µM,124.2 ± 4.0%,> 100 µM,15.3%,39.9 ± 6.9 µM,,,,,,,,"EC50 (human TRPV1 [2]): > 100 µM; EC50 (rat TRPV2 [9]): 0.25 ± 0.03 µM; IC50 (rat TRPV2 [9]; IC50 TRPV2, antagonist/desensitizing, compound added 5 min before agonist CBD 2 μM): 45.8 µM and > 50 µM; TRPV2 Efficacy (% IM 4 μM) (rat TRPV2 [9]; [11]): < 10% and 10.5 ± 0.02%; EC50 (rat TRPV4 [10]): 16.1 ± 21.6 µM; IC50 (rat TRPV4 [10]): > 100 µM; TRPV4 Efficacy (% IM 4 μM) (rat TRPV4 [10]; [11]): <10 <10% and 12.1 ± 0.2%"
